According to US4022900A, “Compositions containing 1,2,3,4-tetrahydroisoquinolines used as hypotensive agents” (Marion Laboratories, Inc., priority 1972, dated 1977):

Experiments:
[1] = tested on: systolic blood pressure of deoxycorticosterone acetate hypertensive rats; assay: Hypotensive activity in DCA/saline hypertensive rats (systolic blood pressure, tail cuff); format: in vivo, rat (male, CD strain); conditions: for Lowering of Blood Pressure in Hypertensive rate in mm's of Hg., 1 hr. / Lowering of Blood Pressure in Hypertensive rate in mm's of Hg., 2 hrs. / Lowering of Blood Pressure in Hypertensive rate in mm's of Hg., 4 hrs. / Lowering of Blood Pressure in Hypertensive rate in mm's of Hg., 24 hrs. / compounds which appear most active from Table I: 50 mg/kg intraperitoneal; for Lowering of Blood Pressure in Hypertensive rate in mm's of Hg., 1 hr. / Lowering of Blood Pressure in Hypertensive rate in mm's of Hg., 2 hrs. / Lowering of Blood Pressure in Hypertensive rate in mm's of Hg., 4 hrs. / Lowering of Blood Pressure in Hypertensive rate in mm's of Hg., 24 hrs.: change vs predrug control, six rats; for compounds which appear most active from Table I: qualitative ranking
Method: Hypertension was produced in weanling (30-day old) male rats of the CD strain obtained from the Charles River Breeding Laboratories (Wilmington, Mass.) by subcutaneously implanting about the dorsal surface of the neck a pellet of deoxycorticosterone acetate (DCA) containing 10 mg DCA in a mixture of Carbowax 4000 (Union Carbide) and Flexowax C light (Glyco Products). Their drinking water was replaced by a 1% sodium chloride solution, a procedure known to facilitate the development of an experimental hypertension, and they had free access to chow. Systolic blood pressure in the caudal arteries was measured indirectly by a pneumatic pulse transducer and a tail pressure cuff on a Physiograph Four recorder (Narco Bio-Systems, Inc., Houston, Texas) in unanesthetized but restrained rats prewarmed to 40° C., 10-15 minutes prior to the determination. The rats were kept at a temperature of 40° C. for all determinations of systolic pressure in an attempt to minimize variations in blood pressure due to marked changes in arterial tone caused by changes in temperature. Blood pressures were measured at intervals in the DCA-treated rats given saline and in non-treated control rats. After 20 days, the mean systolic pressure in the DCA-treated rats was above 150 mm Hg. Hypertension was regarded as being established in the rats at this stage and they were at intervals, usually beginning with the 30th day after DCA-implant in testing for hypotensive activity. Following a series of control blood pressure readings, a dose of 50 mg/kg of the compound under investigation was administered by intraperitoneal injection either in solution or as a suspension in 1% tragacanth solution to groups of six hypertensive rats. Blood pressures were redetermined at 1, 2, 4 and 24 hour periods following injection. At each interval, the systolic pressure was measured a minimum of five times in each rat and the average value was calculated. Mean values for the group were calculated from the individual average values and compared with their predrug control levels. The statistical significance of the changes produced by the compounds, in the doses employed, was tested by the "t" test as well as by an analysis of variance. The reductions in blood pressure obtained with the indicated representative tetrahydroisoquinoline compounds are shown in Table I. The code number for the compound and the example herein showing its preparation are both given in Table I.
(§1) Additional compounds have been tested. The toxicity data for the additional compounds tested, and their identity, is given in the following Table II while the blood pressure lowering activity of the compounds is given in the following Table III. The heading "Example Number" in the tables refers to the working example herein which discloses the compounds and its preparation. The test procedure used for determining the blood pressure lowering activity of the compounds is the same as that previously set forth herein. However, the figures in Table III are expressed as percentage change in blood pressure, rather than in mm of mercury change in blood pressure, as presented in Table I herein.

[2] = Acute toxicity (LD50) in the mouse; conditions: in vivo
Method: 5-(3,4,5-trimethoxybenzamido)-2-methyl-1,2,3,4-tetrahydroisoquinoline (M-20) in mice has an LD-50 of about 125 to 250 mg/kg intraperitoneally.
as §1
Approximate Acute Toxicity (24 hrs.)
(a) Suspension in 1% tragacanth
(b) Solution in distilled water
(c) Solubilized with the aid of dilute acid

[3] = tested on: arterial blood pressure of anesthetized dog; assay: Arterial blood pressure in the anesthetized dog; format: in vivo; conditions: 5 mg/kg intravenously
femoral artery of a dog = assay: Peripheral vasodilator activity after administration into femoral artery of a dog; format: in vivo; conditions: into the femoral artery, compared with papaverine
[4] = Table I, unit, species and route not given

## Cc1cccc(C)c1C(=O)Nc1cccc2c1CCN(C)C2 [M-58, 5-(2,6-Dimethylbenzamido)-2-methyl-1,2,3,4-tetrahydroisoquinoline]
[1]; 50 mg/kg i.p., 1 hour, systolic pressure, * <0.05 significance (Newman-Keuls)
  Percent Change in Pressure from Control ± S.E., 1 Hour: -6.1 ± 1.7%
[1]; 50 mg/kg i.p., 2 hours, systolic pressure, * <0.05 significance (Newman-Keuls)
  Percent Change in Pressure from Control ± S.E., 2 Hours: -2.4 ± 0.6%
[1]; 50 mg/kg i.p., 4 hours, systolic pressure, * <0.05 significance (Newman-Keuls)
  Percent Change in Pressure from Control ± S.E., 4 Hours: -5.2 ± 1.8%
[1]; 50 mg/kg i.p., 24 hours, systolic pressure, * <0.05 significance (Newman-Keuls)
  Percent Change in Pressure from Control ± S.E., 24 Hours: +2.0 ± 2.1%
[2]; ip, 24 hrs, solubilized with the aid of dilute acid, read-out: Approximate Acute Toxicity (24 hrs.) In the Mouse, LD50
  LD50 at 24 h: 125 to 250 mg/kg

## COc1ccc(C(=O)Nc2cccc3c2CCN(C)C3)cc1OC [M-55, 5-(3,4-Dimethyoxybenzamido)-2-methyl-1,2,3,4-tetrahydroisoquinoline]
[1]
  Lowering of Blood Pressure in Hypertensive rate in mm's of Hg., 1 hr.: -32±5 mm's of Hg
  Lowering of Blood Pressure in Hypertensive rate in mm's of Hg., 2 hrs.: -31±5 mm's of Hg
  Lowering of Blood Pressure in Hypertensive rate in mm's of Hg., 4 hrs.: -32±4 mm's of Hg
  Lowering of Blood Pressure in Hypertensive rate in mm's of Hg., 24 hrs.: -20±4 mm's of Hg
  compounds which appear most active from Table I: most active
[2]; [4]
  LD50: 125 to 250 mg/kg

## CCCN1CCc2c(cccc2NC(=O)c2cc(OC)c(OC)c(OC)c2)C1 [M-49, 5-(3,4,5-Trimethoxybenzamido)-2-n-propyl-1,2,3,4-tetrahydroisoquinoline]
[1]
  Lowering of Blood Pressure in Hypertensive rate in mm's of Hg., 1 hr.: -31±6 mm's of Hg
  Lowering of Blood Pressure in Hypertensive rate in mm's of Hg., 2 hrs.: -27±6 mm's of Hg
  Lowering of Blood Pressure in Hypertensive rate in mm's of Hg., 4 hrs.: -21±6 mm's of Hg
  Lowering of Blood Pressure in Hypertensive rate in mm's of Hg., 24 hrs.: -17±6 mm's of Hg
  compounds which appear most active from Table I: most active
[2]; [4]
  LD50: 125 to 250 mg/kg

## COc1cc(C(=O)Nc2cccc3c2CCN(C)C3)cc(OC)c1OC [M-20, 5-(3,4,5-Trimethoxybenzamido)-2-methyl-1,2,3,4-tetrahydroisoquinoline]
[1]
  Lowering of Blood Pressure in Hypertensive rate in mm's of Hg., 1 hr.: -19±3 mm's of Hg
  Lowering of Blood Pressure in Hypertensive rate in mm's of Hg., 2 hrs.: -26±2 mm's of Hg
  Lowering of Blood Pressure in Hypertensive rate in mm's of Hg., 4 hrs.: -15±10 mm's of Hg
  Lowering of Blood Pressure in Hypertensive rate in mm's of Hg., 24 hrs.: -3±2 mm's of Hg
[2]; [4]
  LD50: 125 to 250 mg/kg
[2]; ip, mice, intraperitoneally, about
  LD50: 125 to 250 mg/kg
[3]
  arterial blood pressure: decreased arterial blood pressure
Femoral artery of a dog
  peripheral vasodilator activity: peripheral vasodilator activity although less than that of papaverine

## CN1CCc2c(cccc2NC(=O)c2ccccc2Br)C1 [M-60, 5-(2-Bromobenzamido)-2-methyl-1,2,3,4-tetrahydroisoquinoline]
[1]
  Lowering of Blood Pressure in Hypertensive rate in mm's of Hg., 1 hr.: -12±4 mm's of Hg
  Lowering of Blood Pressure in Hypertensive rate in mm's of Hg., 2 hrs.: -10±8 mm's of Hg
  Lowering of Blood Pressure in Hypertensive rate in mm's of Hg., 4 hrs.: -20±3 mm's of Hg
  Lowering of Blood Pressure in Hypertensive rate in mm's of Hg., 24 hrs.: -26±4 mm's of Hg
[2]; [4]
  LD50: 125 to 250 mg/kg

## COc1cc(OC)c(C(=O)Nc2cccc3c2CCN(C)C3)cc1OC [M-61, 5-(2,4,5-Trimethoxybenzamido)-2-methyl-1,2,3,4-tetrahydroisoquinoline]
[1]
  Lowering of Blood Pressure in Hypertensive rate in mm's of Hg., 1 hr.: -15±4 mm's of Hg
  Lowering of Blood Pressure in Hypertensive rate in mm's of Hg., 2 hrs.: -19±5 mm's of Hg
  Lowering of Blood Pressure in Hypertensive rate in mm's of Hg., 4 hrs.: -15±4 mm's of Hg
  Lowering of Blood Pressure in Hypertensive rate in mm's of Hg., 24 hrs.: -6±6 mm's of Hg
[2]; [4]
  LD50: 68 to 125 mg/kg
